Here are results for six compounds from patent EP0705277B1, “PROSTAGLANDIN RECEPTOR EP3 AND DNA ENCODING IT” (MERCK FROSST CANADA INC., priority 1993, dated 1995).

For experiment [1], the target named is T1, hEP3 subtype (hEP3α, hEP3-21 and hEP3-9 isoforms) (Homo sapiens, UniProt P43115).
T1 sequence (P43115 1-390): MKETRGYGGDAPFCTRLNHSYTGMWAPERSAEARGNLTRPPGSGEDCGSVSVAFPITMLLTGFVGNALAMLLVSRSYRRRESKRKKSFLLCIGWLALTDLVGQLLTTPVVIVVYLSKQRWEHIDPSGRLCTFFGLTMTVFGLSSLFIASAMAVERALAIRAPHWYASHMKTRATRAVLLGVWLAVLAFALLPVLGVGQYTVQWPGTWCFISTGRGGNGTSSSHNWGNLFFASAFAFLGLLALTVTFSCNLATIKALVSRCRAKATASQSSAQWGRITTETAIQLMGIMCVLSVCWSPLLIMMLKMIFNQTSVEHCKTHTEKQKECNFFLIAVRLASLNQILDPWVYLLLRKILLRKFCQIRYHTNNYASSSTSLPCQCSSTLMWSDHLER
Nature of the experiment: [3H]PGE2 competition binding, value stated across the three hEP3 isoforms. The method, then:
Mammalian cell transfectants are analyzed for both the levels of EP3 receptor activity and levels of EP3 protein by the following methods. Assessing EP3 receptor activity involves the direct introduction of a labelled ligand to the cells and determining the amount of specific binding of the ligand to the EP3-expressing cells. Binding assays for receptor activity are known in the art (Frey et al., 1993, Eur. J. Pharmacol., 244, pp 239-250).
The three cloned forms of the human prostaglandin E receptor EP3 subtype (hEP3a, hEP3-21 and hEP3-9) which differ in the carboxyl terminus region of the encoded protein were individually subcloned into the pcDNAlamp plasmid (Invitrogen) and transfected into COS-M6 cells using the DEAE-dextran method. The cells were maintained in culture for 72 hours, then harvested and membranes prepared by differential centrifugation (1000 x g for 10 minutes, then 100,000 x g for 30 minutes) following lysis of the cells by nitrogen cavitation. […] Incubations were conducted for 1 hour at room temperature prior to separation of the bound and free radioligand by rapid filtration as previously described (Frey et al., 1993).

In a further experiment the target is T2, hEP1 (Homo sapiens, UniProt P34995).
T2 sequence (P34995 1-402): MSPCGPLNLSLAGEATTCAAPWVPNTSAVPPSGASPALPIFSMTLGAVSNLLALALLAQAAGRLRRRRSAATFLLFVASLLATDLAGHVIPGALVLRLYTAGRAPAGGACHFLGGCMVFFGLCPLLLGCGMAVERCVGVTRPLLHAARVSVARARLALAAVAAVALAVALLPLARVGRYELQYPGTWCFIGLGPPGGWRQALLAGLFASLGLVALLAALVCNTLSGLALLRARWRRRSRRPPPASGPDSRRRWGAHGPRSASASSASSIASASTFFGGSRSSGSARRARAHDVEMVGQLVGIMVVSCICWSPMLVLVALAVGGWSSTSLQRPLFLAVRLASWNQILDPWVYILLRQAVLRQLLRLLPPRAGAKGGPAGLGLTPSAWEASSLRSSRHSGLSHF
In words: Binding at the hEP1 subtype (comparison value). As to conditions: given for comparison.

Another experiment concerns the target T3, hEP3α (Homo sapiens, UniProt P43115).
T3 construct: a 1.9 kb full length human EP3α cDNA clone was plaque-purified; expressed in transfected cells; host or cells: COS-M6 cells (membranes), pcDNAIamp vector
T3 sequence (P43115 1-390): T1 sequence (P43115 1-390)
Nature of the experiment: [3H]PGE2 binding assay, membranes of pcDNAIamp-hEP3α transfected COS-M6 cells. The settings on record: for fold less active than PGE2: competition for [3H]PGE2 specific binding, relative to PGE2. How it is done: (§1) Mammalian cell transfectants are analyzed for both the levels of EP3 receptor activity and levels of EP3 protein by the following methods. Assessing EP3 receptor activity involves the direct introduction of a labelled ligand to the cells and determining the amount of specific binding of the ligand to the EP3-expressing cells.
(§2) The three cloned forms of the human prostaglandin E receptor EP3 subtype (hEP3a, hEP3-21 and hEP3-9) which differ in the carboxyl terminus region of the encoded protein were individually subcloned into the pcDNAlamp plasmid (Invitrogen) and transfected into COS-M6 cells using the DEAE-dextran method. The cells were maintained in culture for 72 hours, then harvested and membranes prepared by differential centrifugation (1000 x g for 10 minutes, then 100,000 x g for 30 minutes) following lysis of the cells by nitrogen cavitation.

In another experiment the target is T4, hEP3-9 (Homo sapiens, UniProt P43115).
T4 construct: both a 1.7 kb full length human EP3-21 cDNA clone and a 1.4 kb full length human EP3-9 cDNA clone; expressed in transfected cells; host or cells: COS-M6 cells (membranes), pcDNAIamp vector
T4 sequence (P43115 1-365 isoform P43115-3): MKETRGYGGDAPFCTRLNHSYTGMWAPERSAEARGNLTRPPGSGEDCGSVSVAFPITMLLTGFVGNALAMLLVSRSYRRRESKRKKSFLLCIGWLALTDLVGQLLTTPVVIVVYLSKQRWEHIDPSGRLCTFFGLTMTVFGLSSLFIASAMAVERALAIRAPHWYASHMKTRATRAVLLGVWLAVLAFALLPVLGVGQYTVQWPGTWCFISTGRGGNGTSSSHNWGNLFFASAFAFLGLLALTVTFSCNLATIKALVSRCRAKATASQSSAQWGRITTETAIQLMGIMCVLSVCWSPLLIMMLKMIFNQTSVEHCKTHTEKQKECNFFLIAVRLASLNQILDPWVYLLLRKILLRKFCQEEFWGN
In words: [3H]PGE2 binding assay, membranes of hEP3-9 transfected COS-M6 cells. The settings on record: for fold less active than PGE2: competition for [3H]PGE2 specific binding, relative to PGE2. The method, then:
as §1, §2

The next experiment has as its target T5, hEP3-21 (Homo sapiens, UniProt P43115).
T5 construct: both a 1.7 kb full length human EP3-21 cDNA clone and a 1.4 kb full length human EP3-9 cDNA clone; expressed in transfected cells; host or cells: COS-M6 cells (membranes), pcDNAIamp vector
T5 sequence (P43115 1-388 isoform P43115-2): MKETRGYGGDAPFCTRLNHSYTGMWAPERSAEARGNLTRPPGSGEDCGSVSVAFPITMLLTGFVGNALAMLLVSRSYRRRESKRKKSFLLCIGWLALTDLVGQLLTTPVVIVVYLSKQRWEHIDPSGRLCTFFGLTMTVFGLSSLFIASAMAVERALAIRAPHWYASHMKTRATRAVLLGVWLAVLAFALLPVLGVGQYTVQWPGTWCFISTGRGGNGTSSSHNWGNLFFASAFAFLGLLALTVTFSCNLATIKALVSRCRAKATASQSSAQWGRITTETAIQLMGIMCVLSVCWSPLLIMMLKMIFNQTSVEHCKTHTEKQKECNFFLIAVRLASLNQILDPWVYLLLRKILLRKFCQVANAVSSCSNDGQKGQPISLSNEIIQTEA
Nature of the experiment: [3H]PGE2 binding assay, membranes of pcDNAIamp-hEP3-21 transfected COS-M6 cells. As to conditions: for fold less active than PGE2: competition for [3H]PGE2 specific binding, relative to PGE2. The method, then: as §1, §2

A further experiment deals with T6, thromboxane receptor (Homo sapiens, UniProt P21731).
T6 construct: One full-length (≈ 2.9 kb) clone contained extensive 5' and 3' noncoding regions; expressed in transfected cells; host or cells: human embryonic kidney 293 cells and membranes
T6 sequence (P21731 1-343): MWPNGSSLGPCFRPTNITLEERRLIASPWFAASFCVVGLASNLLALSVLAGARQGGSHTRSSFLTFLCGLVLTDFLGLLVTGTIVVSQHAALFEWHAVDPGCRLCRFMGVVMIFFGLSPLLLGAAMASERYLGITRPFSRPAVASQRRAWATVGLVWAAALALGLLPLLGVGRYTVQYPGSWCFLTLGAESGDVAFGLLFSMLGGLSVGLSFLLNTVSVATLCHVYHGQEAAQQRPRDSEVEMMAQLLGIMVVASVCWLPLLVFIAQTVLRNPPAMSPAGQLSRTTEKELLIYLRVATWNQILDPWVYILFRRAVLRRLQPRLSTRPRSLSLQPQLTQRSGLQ
Nature of the experiment: SQ-29548 binding to 293 cells and membranes transfected with thromboxane-receptor cDNA. As to conditions: human embryonic kidney 293 cells and membranes transfected with thromboxane-receptor cDNA. The source says:
The thromboxane receptor has been expressed in Xenopus oocytes. It can couple with endogenous signal transduction components to elicit a calcium-activated Cl- current recorded by electrophysiological measurement using the procedure described by Hirata, M. et al., (1991), Nature, 349, pp. 617. Binding studies have been performed with COS-1 cell membranes transfected by thromboxane receptor cDNA using the ligand S-145 (Hirata, M. et al., (1991), Nature, 349, pp. 617). […] This level of expression is at least 5-10 times higher than in platelet membranes. On a per-cell basis assuming a 10% transfection efficiency, we estimate ≈ 10^6 binding sites/tranfected cell as compared to ≈ 1300 sites present on a platelet (Hourani, S.M.O, et al., (1991), Pharmacol. Rev., 43, pp. 243).

In general, IC50 refers to the midpoint of a concentration-inhibition curve. A low value points to greater potency in that assay. In the case of `CCCCC(C)(O)C/C=C/[C@H]1[C@H](O)CC(=O)[C@@H]1CCCCCCC(=O)OC` (mixture of isomers) [misoprostol], the half-inhibitory concentration (IC50) in experiment [1] lay within 300 to 1200 nM.
`CC(C)Oc1ccc2c(=O)c3cc(C(=O)O)ccc3oc2c1` [AH6809]: the concentration for half-maximal inhibition (IC50) is 500 nM on hEP1 and 2000 to 7000 nM in experiment [1]. For the same compound, in experiment [1] (hEP3 versus hEP1, in general), the “fold less active at the hEP3 subtype as compared with the hEP1 subtype” value is recorded as 5-10 fold.
As for `CCCCC[C@H](O)/C=C/[C@H]1C(=O)C[C@H](O)[C@@H]1C/C=C\CCCC(=O)O` [PGD2], the “fold less active than PGE2” value is listed as ~2000 fold on hEP3α, ~500 fold on hEP3-9 and ~2000 fold on hEP3-21.
Take `CCCCC[C@H](O)/C=C/[C@H]1[C@H](O)CC(=O)[C@@H]1CCCCCCC(=O)O` [PGE1]: the half-maximal inhibitory concentration (IC50) on hEP3α, at hEP3-9 and on hEP3-21 was ~1 nM throughout.
With `CCCCC[C@H](O)/C=C/[C@@H]1[C@@H](C/C=C\CCCC(=O)O)[C@@H](O)C[C@H]1O` [PGF2α], the “fold less active than PGE2” value at hEP3α is “approximately 200 fold”; at hEP3-9 it was ~65 fold; at hEP3-21, “approximately 200 fold”.
Consider `O=C(O)CCC/C=C\C[C@@H]1[C@H](CNNC(=O)Nc2ccccc2)[C@H]2CC[C@@H]1O2` [SQ-29548], for which the binding result on thromboxane receptor is given as “high affinity binding”.
